# Experimental data reported in patent US4468469A, “Substituted phenylacetic acids and salts as TBP blocking agents in iodothyronine immunoassays” (Miles Laboratories, Inc., priority 1982, dated 1984).
# Where two headings read alike, the source gives them in different places.
# Legend:
# apoglucose oxidase = apoglucose oxidase (Aspergillus niger, UniProt P13006); assay: Activation of apoglucose oxidase by FAD-thyroxine conjugate; type: biochemical; settings: 5.5 min, pH 7; for activity at 160 µM: 0.16 mM fenclofenac; for activity at 310 µM: 0.31 mM fenclofenac; for activity at 630 µM: 0.63 mM fenclofenac; for activity at 1250 µM: 1.25 mM fenclofenac; for activity at 2500 µM: 2.5 mM fenclofenac; for activity at 5000 µM: 5.0 mM fenclofenac; for activity at 10000 µM: 10.0 mM fenclofenac
# Chain of apoglucose oxidase (P13006 17-605): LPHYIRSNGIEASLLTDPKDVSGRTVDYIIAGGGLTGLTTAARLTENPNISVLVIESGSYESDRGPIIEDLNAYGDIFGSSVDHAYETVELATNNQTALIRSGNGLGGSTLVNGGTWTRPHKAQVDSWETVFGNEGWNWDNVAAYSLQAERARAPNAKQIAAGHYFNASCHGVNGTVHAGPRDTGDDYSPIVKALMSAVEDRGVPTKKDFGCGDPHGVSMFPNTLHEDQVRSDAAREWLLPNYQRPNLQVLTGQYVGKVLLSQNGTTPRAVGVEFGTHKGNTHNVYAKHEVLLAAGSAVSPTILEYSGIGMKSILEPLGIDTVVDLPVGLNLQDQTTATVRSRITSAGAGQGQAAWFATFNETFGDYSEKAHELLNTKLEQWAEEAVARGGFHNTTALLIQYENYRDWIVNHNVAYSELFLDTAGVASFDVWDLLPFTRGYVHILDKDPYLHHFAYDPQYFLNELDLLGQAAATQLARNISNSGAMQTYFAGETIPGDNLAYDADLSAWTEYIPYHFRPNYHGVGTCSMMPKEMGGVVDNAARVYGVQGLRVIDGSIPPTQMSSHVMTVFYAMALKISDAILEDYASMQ
# Experimental: In a second study, the effect of fenclofenac on the activation of apoglucose oxidase by an FAD-iodothyronine (T-4) conjugate was investigated. The activation of apoglucose oxidase was set up with different concentrations of fenclofenac and performed at 37° C. To two sets of assays containing 96 mM sodium phosphate, pH 7.0, 95 mM glucose, 1.0 mM sodium dichlorohydroxybenzene sulfonate (DHSA), 19 μg/ml peroxidase and various concentrations of sodium fenclofenac were added apoglucose oxidase, 4-aminoantipyrine, and anti(glucose oxidase) at final concentrations of 100 nM, 100 μM, 5 μl/ml respectively or 2.1 nM final concentration of an FAD-thyroxine conjugate. After preincubating the assay media for 5 min at 37° C. the FAD-thyroxine conjugate or the apoglucose oxidase reagent was added to the appropriate assay set. The absorbance at 520 nm was recorded after a 330 second incubation. The data are presented as a percentage of the absorbance recorded when no fenclofenac is present.
# [1] = test system: serum proteins (thyroxine binding protein, TBP); assay: Dissociation of thyroxine from human serum, first experiment (Sephadex LH-20 column, pH 6.5)
# Experimental: Approximately 3 milliliters (ml) of human serum was allowed to equilibrate with radioactive iodine-labeled thyroxine (^125 I-thyroxine obtained from Amersham-Searle, Arlington Heights, Ill., USA) for about 8 hours.
# Then 100 microliter (μl) aliquots of this serum were combined with 300 μl aliquots of 0.1 molar (M) sodium phosphate buffer, pH 6.5, containing various concentrations of fenclofenac (British Pat. No. 1,308,327; example 6). Then 180 μl aliquots of each of these mixtures were applied to 2 ml columns of Sephadex LH-20 (Pharmacia Fine Chemicals, Piscataway, N.J. USA) equilibrated with 0.1M sodium phosphate buffer, pH 6.5. The radioactivity on the columns was measured and the columns were washed with 5 ml of the buffer. The radioactivity of each column was measured again and the results (shown below in Table 1) used as estimates of thyroxine dissociated from serum proteins.
# [2] = read-out: percentage of the absorbance at 520 nm without fenclofenac, Started with Apoenzyme Addition
# [3] = read-out: percentage of the absorbance at 520 nm without fenclofenac, Started with Conjugate Addition
compound,measurement,setting,value
"O=C(O)Cc1ccccc1Oc1ccc(Cl)cc1Cl [Fenclofenac, 2-(2,4-dichlorophenoxy)phenylacetic acid]",activity at 160 µM,apoglucose oxidase; [2],100%
same,activity at 160 µM,apoglucose oxidase; [3],97%
same,activity at 310 µM,apoglucose oxidase; [2],98%
same,activity at 310 µM,apoglucose oxidase; [3],92%
same,activity at 630 µM,apoglucose oxidase; [2],97%
same,activity at 630 µM,apoglucose oxidase; [3],94%
same,activity at 1250 µM,apoglucose oxidase; [2],93%
same,activity at 1250 µM,apoglucose oxidase; [3],95%
same,activity at 2500 µM,apoglucose oxidase; [2],90%
same,activity at 2500 µM,apoglucose oxidase; [3],85%
same,activity at 5000 µM,apoglucose oxidase; [2],78%
same,activity at 5000 µM,apoglucose oxidase; [3],74%
same,activity at 10000 µM,apoglucose oxidase; [2],53%
same,activity at 10000 µM,apoglucose oxidase; [3],54%
same,inhibition at 2000 µM,"apoglucose oxidase; about 2 mM fenclofenac, FAD-thyroxine conjugate, read-out: colorimetric response diminished",8 to 10%
same,Percent Thyroxine Dissociated,[1]; 0.25 mM fenclofenac,50%
same,Percent Thyroxine Dissociated,[1]; 0.50 mM fenclofenac,72%
same,Percent Thyroxine Dissociated,[1]; 1.0 mM fenclofenac,79%
same,Percent Thyroxine Dissociated,[1]; 2.0 mM fenclofenac,98%
same,Percent Thyroxine Dissociated,[1]; 5.0 mM fenclofenac,100%
